25 compounds from patent US8648092B2, “Imidazo[1,2-a]pyridine derivatives: preparation and pharmaceutical applications” (MEI Pharma, priority 2005, dated 2014) can be followed below.

The term IC50 denotes the concentration that inhibits the measured activity by half. For orientation: GI50 means the concentration giving 50% growth inhibition. Lower therefore signals greater sensitivity of the cells.

For experiment [1], the target named is HDAC1 enzyme (recombinant GST-HDAC1) (Homo sapiens (Human), UniProt Q13547). In words: In vitro HDAC assay for determination of IC50 values (BIOMOL fluorescent-based HDAC activity assay). As to conditions: Flur de lys substrate, 2 h room temperature, read-out: IC50 (HDAC 1). The experiment is classed as biochemical. The method, then:
Biological Testing and Enzyme Assays Recombinant GST-HDAC1 Protein Expression and Purification
Human cDNA library was prepared using cultured SW620 cells. Amplification of human HDAC1 coding region from this cDNA library was cloned separately into the baculovirus expression pDEST20 vector (GATEWAY Cloning Technology, Invitrogen Pte Ltd). The pDEST20-HDAC1 construct was confirmed by DNA sequencing. Recombinant baculovirus was prepared using the Bac-To-Bac method following the manufacturer's instruction (Invitrogen Pte Ltd).
Expression of GST-HDAC1 was done by infecting SF9 cells (Invitrogen Pte Ltd) with pDEST20-HDAC1 baculovirus at MOI=1 for 48 h. Soluble cell lysate was incubated with pre-equilibrated Glutathione Sepharose 4B beads (Amersham) at 4° C. for 2 h. The beads were washed with PBS buffer for 3 times. The GST-HDAC1 protein was eluted by elution buffer containing 50 mM Tris, pH8.0, 150 mM NaCl, 1% Triton X-100 and 10 mM or 20 mM reduced Glutathione. The purified GST-HDAC1 protein was dialyzed with HDAC storage buffer containing 10 mM Tris, pH7.5, 100 mM NaCl and 3 mM MgCl2. 20% Glycerol was added to purified GST-HDAC1 protein before storage at −80° C.
In Vitro HDAC Assay for Determination of IC50 Values
The assay has been carried out in 96 well format and the BIOMOL fluorescent-based HDAC activity assay has been applied. […] Flur de lys Developer was added and the reaction was incubated for 10 min. Briefly, deacetylation of the substrate sensitizes it to the developer, which then generates a fluorophore. The fluorophore is excited with 360 nm light and the emitted light (460 nm) is detected on a fluorometric plate reader (Tecan Ultra Microplate detection system, Tecan Group Ltd.).
The analytical software, Prism 4.0 (GraphPad Software Inc) has been used to generate IC50 from a series of data.

In experiment [2] the test system is Colo205 cells. The experiment in a line: Cell-based proliferation assay for determination of GI50 values (CyQUANT). On the set-up: species or system human. As to conditions: Homo sapiens, COLO 205, 96 h treatment. How it is done:
Cell-Based Proliferation Assay for Determination of GI50 Values
Human cancer cell lines (e.g. Colo205) were obtained from ATCC. Colo205 cells were cultivated in RPMI 1640 containing 2 mM L-Glutamine, 5% FBS, 1.0 mM Na Pyruvate. Colo205 cells were seeded in 96-wells plate at 5000 cells per well. The plates were incubated at 37° C., 5% CO2, for 24 h. Cells were treated with compounds at various concentrations for 96 h. Cell growth was then monitored using CyQUANT® cell proliferation assay (Invitrogen Pte Ltd). Dose response curves were plotted to determine GI50 values for the compounds using XL-fit (ID Business Solution, Emeryville, Calif.). GI50 is defined as the concentration of compound required for 50% inhibition of cell growth.
The cellular or growth inhibition activity results of representative compounds are shown in Table 4 below (unit in the table is micromolar).

Sequence of HDAC1 enzyme (recombinant GST-HDAC1) (Q13547 whole entry): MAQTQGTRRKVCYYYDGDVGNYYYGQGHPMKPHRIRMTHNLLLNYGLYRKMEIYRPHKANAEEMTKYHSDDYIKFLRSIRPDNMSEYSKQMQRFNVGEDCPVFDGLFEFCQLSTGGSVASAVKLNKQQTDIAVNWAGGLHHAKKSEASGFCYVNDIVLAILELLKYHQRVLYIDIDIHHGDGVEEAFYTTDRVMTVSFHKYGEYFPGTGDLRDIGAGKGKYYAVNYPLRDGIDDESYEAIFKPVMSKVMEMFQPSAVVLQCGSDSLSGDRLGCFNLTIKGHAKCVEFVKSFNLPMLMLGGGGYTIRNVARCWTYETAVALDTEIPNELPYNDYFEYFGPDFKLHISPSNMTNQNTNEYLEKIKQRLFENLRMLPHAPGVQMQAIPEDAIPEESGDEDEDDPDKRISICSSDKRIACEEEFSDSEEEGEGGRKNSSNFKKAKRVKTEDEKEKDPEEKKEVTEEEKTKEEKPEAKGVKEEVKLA

For the compound `CCCCCCc1nc2ccc(/C=C/C(=O)NO)cn2c1NCCC(=O)NCC` [Compound 18, (E)-3-(3-(3-(ethylamino)-3-oxopropylamino)-2-hexylimidazo[1,2-a]pyridin-6-yl)-N-hydroxyacrylamide], the concentration for half-maximal inhibition (IC50) in experiment [1] is 630 nM. For the same compound, the GI50 in experiment [2] amounted to 12 µM.

For the compound `CCCCCCc1nc2ccc(/C=C/C(=O)NO)cn2c1NCCC(=O)NCCN(C)C` [Compound 19, (E)-3-(3-(3-(2-(dimethylamino)ethylamino)-3-oxopropylamino)-2-hexylimidazo[1,2-a]pyridin-6-yl)-N-hydroxyacrylamide], in experiment [1], the IC50 amounted to 780 nM. This compound yielded a concentration for 50% growth inhibition (GI50) in experiment [2] of 24 µM.

For `CCCCCCc1nc2cc(/C=C/C(=O)NO)ccn2c1NCCC(=O)NCCN(C)C` [Compound 20, 3-{3-[2-(2-Dimethylamino-ethylcarbamoyl)-ethylamino]-2-hexyl-imidazo[1,2-a]pyridin-7-yl}-N-hydroxy-acrylamide], the half-maximal inhibitory concentration (IC50) in experiment [1] was determined as 99 nM. Moreover, the 50% growth inhibitory concentration (GI50) in experiment [2] came out at 28 µM.

For the compound `CCCCCCc1nc2cc(/C=C/C(=O)NO)ccn2c1NCCC(=O)NCCCC` [Compound 21, 3-[3-(2-Butylcarbamoyl-ethylamino)-2-hexyl-imidazo[1,2-a]pyridin-7-yl]-N-hydroxy-acrylamide], in experiment [1], the concentration for half-maximal inhibition (IC50) turned out to be 130 nM. Further, the GI50 in experiment [2] is 13 µM.

Turning to `CCCCCCc1nc2cc(C=CC(=O)NO)ccn2c1NCCC(=O)NC(C)(C)C` [Compound 22, 3-[3-(2-tert-Butylcarbamoyl-ethylamino)-2-hexyl-imidazo[1,2-a]pyridin-7-yl]-N-hydroxy-acrylamide], the half-maximal inhibitory concentration (IC50) in experiment [1] worked out at 140 nM. Also, in experiment [2], the concentration for 50% growth inhibition (GI50) is 19 µM.

Take `CCCCCCc1nc2cc(/C=C/C(=O)NO)ccn2c1NCCC(=O)NCC(F)(F)F` [Compound 23, 3-{2-Hexyl-3-[2-(2,2,2-trifluoro-ethylcarbamoyl)-ethylamino]-imidazo[1,2-a]pyridin-7-yl}-N-hydroxy-acrylamide]: in experiment [1], the half-inhibitory concentration (IC50) is 160 nM. In experiment [2], this compound gave a 50% growth inhibitory concentration (GI50) of 15 µM.

For the compound `CCCCCCc1nc2cc(/C=C/C(=O)NO)ccn2c1NCCC(=O)NCCOC` [Compound 24, 3-{2-Hexyl-3-[2-(2-methoxy-ethylcarbamoyl)-ethylamino]-imidazo[1,2-a]pyridin-7-yl}-N-hydroxy-acrylamide], the IC50 in experiment [1] amounted to 130 nM. In experiment [2], this compound displayed a concentration for 50% growth inhibition (GI50) of 40 µM.

Regarding `CCCCCCc1nc2cc(/C=C/C(=O)NO)ccn2c1NCCC(=O)NCCSC` [Compound 25, 3-{2-Hexyl-3-[2-(2-methylsulfanyl-ethylcarbamoyl)-ethylamino]-imidazo[1,2-a]pyridin-7-yl}-N-hydroxy-acrylamide], the IC50 in experiment [1] is 73 nM. This compound gave a concentration for 50% growth inhibition (GI50) in experiment [2] of 2.1 µM.

For the compound `C#CCNC(=O)CCNc1c(CCCCCC)nc2cc(/C=C/C(=O)NO)ccn12` [Compound 26, 3-[2-Hexyl-3-(2-prop-2-ynylcarbamoyl-ethylamino)-imidazo[1,2-a]pyridin-7-yl]-N-hydroxy-acrylamide], the half-maximal inhibitory concentration (IC50) in experiment [1] was 140 nM. Further, it took 7.9 µM to inhibit growth in experiment [2] by half (GI50).

Consider `CCCCCCc1nc2cc(/C=C/C(=O)NO)ccn2c1NCCC(=O)NC(CO)C(C)C` (centres unmarked) [Compound 27, 3-{2-Hexyl-3-[2-(1-hydroxymethyl-2-methyl-propylcarbamoyl)-ethylamino]-imidazo[1,2-a]pyridin-7-yl}-N-hydroxy-acrylamide], for which the 50% inhibitory concentration (IC50) in experiment [1] came out at 180 nM. The compound further returned a GI50 in experiment [2] of 8.5 µM.

On to `CCCCCCc1nc2cc(/C=C/C(=O)NO)ccn2c1NCCC(=O)NCCN(CC)CC` [Compound 28, 3-{3-[2-(2-Diethylamino-ethylcarbamoyl)-ethylamino]-2-hexyl-imidazo[1,2-a]pyridin-7-yl}-N-hydroxy-acrylamide], for which, in experiment [1], the IC50 turned out to be 110 nM. Also, the GI50 in experiment [2] turned out to be 7.3 µM.

`CCCCCCc1nc2cc(/C=C/C(=O)NO)ccn2c1NCCC(=O)NCC` [Compound 29, 3-[3-(2-Ethylcarbamoyl-ethylamino)-2-hexyl-imidazo[1,2-a]pyridin-7-yl]-N-hydroxy-acrylamide]: the IC50 in experiment [1] came out at 380 nM. The GI50 in experiment [2] is 2.1 µM.

`CCCCCCc1nc2cc(/C=C/C(=O)NO)ccn2c1NCCC(=O)N(C)C` [Compound 30, 3-[3-(2-Dimethylcarbamoyl-ethylamino)-2-hexyl-imidazo[1,2-a]pyridin-7-yl]-N-hydroxy-acrylamide]: the IC50 in experiment [1] stood at 880 nM. Also, the concentration for 50% growth inhibition (GI50) in experiment [2] was determined as 3.9 µM.

`CCCCCCc1nc2cc(/C=C/C(=O)NO)ccn2c1NCCC(=O)N(C)CCN(C)C` [Compound 32, 3-(3-{2-[(2-Dimethylamino-ethyl)-methyl-carbamoyl]-ethylamino}-2-hexyl-imidazo[1,2a]pyridin-7-yl)-N-hydroxy-acrylamide]: in experiment [1], the IC50 turned out to be 240 nM. This compound yielded a 50% growth inhibitory concentration (GI50) in experiment [2] of 2.8 µM.

With `CCCCCCc1nc2cc(/C=C/C(=O)NO)ccn2c1NCCC(=O)N(CCC)CCO` [Compound 33, 3-(2-Hexyl-3-{2-[(2-hydroxy-ethyl)-propyl-carbamoyl]-ethylamino}-imidazo[1,2-a]pyridin-7-yl)-N-hydroxy-acrylamide], in experiment [1], the IC50 is 830 nM. The GI50 in experiment [2] is 27 µM.

Take `O=C(/C=C/c1ccn2cc(-c3ccccc3)nc2c1)NO` [Compound 34, N-Hydroxy-3-(2-phenyl-imidazo[1,2-a]pyridin-7-yl)-acrylamide]: the IC50 in experiment [1] was determined as 870 nM. For the same compound, halving of growth in experiment [2] (GI50) required 42 µM.

Regarding `CCCCCCc1nc2cc(/C=C/C(=O)NO)ccn2c1NCCC(=O)NCC(C)(C)CN(C)C` [Compound 35, 3-{3-[2-(3-Dimethylamino-2,2-dimethyl-propylcarbamoyl)-ethylamino]-2-hexyl-imidazo[1,2-a]pyridin-7-yl}-N-hydroxy-acrylamide], the IC50 in experiment [1] was 140 nM. In experiment [2], growth was halved (GI50) at 9.3 µM.

Consider `CCCCCCc1nc2cc(/C=C/C(=O)NO)ccn2c1NCCC(=O)NC` [Compound 36, 3-[2-Hexyl-3-(2-methylcarbamoyl-ethylamino)-imidazo[1,2-a]pyridin-7-yl]-N-hydroxy-acrylamide], for which the IC50 in experiment [1] was determined as 390 nM. It took 14 µM to inhibit growth in experiment [2] by half (GI50).

As for `CCCCCCc1nc2cc(/C=C/C(=O)NO)ccn2c1NCCC(=O)N(C)C(C)C` [Compound 37, 3-{2-Hexyl-3-[2-(isopropyl-methyl-carbamoyl)-ethylamino]-imidazo[1,2-a]pyridin-7-yl}-N-hydroxy-acrylamide], the half-maximal inhibitory concentration (IC50) in experiment [1] amounted to 590 nM. Growth in experiment [2] was halved (GI50) at 5.3 µM.

Turning to `CCCCCCc1nc2cc(/C=C/C(=O)NO)ccn2c1NCCC(=O)N(CCOC)C(C)C` [Compound 38, 3-(2-Hexyl-3-{2-[isopropyl-(2-methoxy-ethyl)-carbamoyl]-ethylamino}-imidazo[1,2-a]pyridin-7-yl)-N-hydroxy-acrylamide], the IC50 in experiment [1] was 360 nM. In experiment [2], this compound displayed a concentration for 50% growth inhibition (GI50) of 3.5 µM.

As to `Cc1cn2ccc(/C=C/C(=O)NO)cc2n1` [Compound 41, N-Hydroxy-3-(2-methyl-imidazo[1,2-a]pyridin-7-yl)-acrylamide], the IC50 in experiment [1] is 1300 nM. In addition, in experiment [2], halving of growth (GI50) required 2.5 µM.

For the compound `CCCCNCc1c(C)nc2cc(/C=C/C(=O)NO)ccn12` [Compound 42, 3-(3-Butylaminomethyl-2-methyl-imidazo[1,2-a]pyridin-7-yl)-N-hydroxy-acrylamide], in experiment [1], the IC50 turned out to be 160 nM. In experiment [2], this compound returned a GI50 of 1.5 µM.

On to `CCN(CC)CCNCc1c(C(C)(C)C)nc2cc(/C=C/C(=O)NO)ccn12` [Compound 43, 3-{2-tert-Butyl-3-[(2-diethylamino-ethylamino)-methyl]-imidazo[1,2-a]pyridin-7-yl}-N-hydroxy-acrylamide], for which, in experiment [1], the 50% inhibitory concentration (IC50) was 2000 nM. Further, in experiment [2], the 50% growth inhibitory concentration (GI50) was 34 µM.

For `CCN(CCN(C)C)Cc1c(-c2ccccc2)nc2cc(/C=C/C(=O)NO)ccn12` [Compound 44, 3-(3-{[(2-Dimethylamino-ethyl)-ethyl-amino]-methyl}-2-phenyl-imidazo[1,2-a]pyridin-7-yl)-N-hydroxy-acrylamide], the IC50 in experiment [1] came out at 2900 nM. This compound also gave a concentration for 50% growth inhibition (GI50) in experiment [2] of 32 µM.

Consider `O=C(/C=C/c1ccn2c(CNCC(F)(F)F)c(-c3ccccc3)nc2c1)NO` [Compound 46, N-Hydroxy-3-{2-phenyl-3-[(2,2,2-trifluoro-ethylamino)-methyl]-imidazo[1,2-a]pyridin-7-yl}-acrylamide], for which the IC50 in experiment [1] is greater than 10000 nM. For the same compound, the GI50 in experiment [2] was determined as 11 µM.
